Laboratory results taken from patent US20240327429A1, “[1,3]Thiazolo[4,5-d]-pyrimidon-7-ones as inhibitors of NOX4” (Boehringer Ingelheim International GmbH, priority 2023, published 2024).
Values joined by “and” are separate entries in the source; they are usually repeats but may differ in a detail not shown here. Equal entries are not always repeated.

Legend:
[1] = molecular target: T1, human NOX3 (hNOX3) (Homo sapiens, UniProt Q9HBY0); test: NOX3 inhibition assay (L-012), HEK293 cells stably overexpressing human NOX3; format: cell-based; settings: HEK293-hNOX3, PMA stimulated
T1 construct: pLV-CMV-hNOX3-puro (NM_015718.3); host or cells: HEK293 (CLS GmbH), lentiviral transduction
T1 sequence (Q9HBY0 1-568): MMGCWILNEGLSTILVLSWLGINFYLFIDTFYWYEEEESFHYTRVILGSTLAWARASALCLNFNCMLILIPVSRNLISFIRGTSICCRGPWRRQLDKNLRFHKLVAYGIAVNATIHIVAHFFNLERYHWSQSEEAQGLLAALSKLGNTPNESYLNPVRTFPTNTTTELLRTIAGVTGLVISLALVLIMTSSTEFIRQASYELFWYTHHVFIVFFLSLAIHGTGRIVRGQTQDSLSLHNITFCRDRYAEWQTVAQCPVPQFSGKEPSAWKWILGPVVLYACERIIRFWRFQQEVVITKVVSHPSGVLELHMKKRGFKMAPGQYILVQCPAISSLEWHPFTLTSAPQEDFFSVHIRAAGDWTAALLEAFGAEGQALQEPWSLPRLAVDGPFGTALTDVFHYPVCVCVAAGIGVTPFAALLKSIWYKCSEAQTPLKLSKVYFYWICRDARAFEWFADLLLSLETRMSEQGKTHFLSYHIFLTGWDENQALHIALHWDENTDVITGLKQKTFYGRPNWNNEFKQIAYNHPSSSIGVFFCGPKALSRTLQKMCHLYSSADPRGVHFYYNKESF
T1 sequence (P13498 2-195 partner limits assumed): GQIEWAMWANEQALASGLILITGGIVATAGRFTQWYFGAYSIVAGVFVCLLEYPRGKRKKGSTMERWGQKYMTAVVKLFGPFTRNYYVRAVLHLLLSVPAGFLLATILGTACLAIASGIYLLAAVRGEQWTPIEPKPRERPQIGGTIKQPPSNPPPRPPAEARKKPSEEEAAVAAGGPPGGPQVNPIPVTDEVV
Source text: Plasmids are Purchased from Vectorbuilder. • for HEK-hNOX1 all necessary subunits are cloned accordingly: • pLV-CMV-hNOX1-puro (NM_007052.5) • pLV-CMV-hNOXO1-blas (NM_172168.3) • pLV-CMV-hp22phox-hygro (NM_000101.4) • pLV-CMV-hNOXA1-neo (NM_006647.2) • for HEK-hNOX3 • pLV-CMV-hNOX3-puro (NM_015718.3)
3rd generation lentiviral particles are produced in HEK293 suspension cells by transient transfection of three helper and expression plasmids. Crucial lentivirus supernatants are harvested, clarified by filtration and concentrated by precipitation. Lentivirus titers are determined in transducing units in (TU/mL) by transduction of HT1080 cells and colony forming assay. Parental HEK293 cells, purchased from CLS GmbH, are transduced with replication-incompetent 3rd generation lentiviral particles (MOI 2) and expanded for at least 2 weeks before cryopreservation of tested lots. During cultivation, medium is changed three times per week and cells are sub-cultured at least once per week. Selection antibiotics are added according to the plasmids (1 μg/ml puromycin, 1.5 μg/ml blasticidin, 200 μg/ml G418 and 100 μg/ml hygromycin).
Evaluation of the NOX4 inhibitors on NOX3 activity is assessed in HEK293 cells stably overexpressing human NOX3 (hNOX3).
Cells are seeded in 384 well plates for 2 days. […] Cells are then stimulated with PMA at 0.1 μM to induce NOX3-dependent ROS production. […] Luminescence is measured with an PHERAstar multimode reader.

[2] = system: human hepatocytes; test: Evaluation of hepatocyte clearance (metabolic stability); format: in vitro ADME; settings: 1 μM test compound, 5% human serum, Table 3
Description: The metabolic degradation of the test compound is assayed in a hepatocyte suspension. Hepatocytes (cryopreserved) are incubated in Dulbecco's modified eagle medium (supplemented with […] glucagon/500 mL, 2.5 mg insulin/500 mL and 3.75 mg/500 mL hydrocortisone) containing 5% human serum.
Following a 30 min preincubation in an incubator (37° C., 10% CO2) 5 μl of test compound solution (80 μM; from 2 mM in DMSO stock solution diluted 1:25 with medium) are added into 395 μl hepatocyte suspension (cell density in the range 0.25-5 Mio cells/mL, typically 1 Mio cells/mL; final concentration of test compound 1 μM, final DMSO concentration 0.05%).
The cells are incubated for six hours (incubator, orbital shaker) and samples (25 μl) are taken at 0, 0.5, 1, 2, 4 and 6 hours. Samples are transferred into acetonitrile and pelleted by centrifugation (5 min). The supernatant is transferred to a new 96-deepwell plate, evaporated under nitrogen and resuspended.
Decline of Parent Compound is Analyzed by HPLC-MS/MS.
CLint is Calculated as Follows:
CL_[…]=Dose/AUC=(C0/CD)/(AUD+clast/k)×1000/60. • C0: initial concentration in the incubation [μM], CD: cell density of vital cells [10^6 cells/mL], AUD: area under the data [μM×h], clast: concentration of last data point [μM], • k: slope of the regression line for parent decline [h-1].
The calculated in vitro hepatic intrinsic clearance can be scaled up to the intrinsic in vivo hepatic clearance and used to predict hepatic in vivo blood clearance (CL) by the use of a liver model (well stirred model).
CL_[…]_INVIVO[ml/min/kg]=(CL_[…][μL/min/10^6 cells]×hepatocellularity[10^6 cells/g liver]×liver factor[g/kg bodyweight])/1000
CL[ml/min/kg]=CL_[…]_INVIVO[ml/min/kg]×hepatic blood flow[ml/min/kg]/(CL_[…]_INVIVO[ml/min/kg]+hepatic blood flow[ml/min/kg])

[3] = molecular target: T2, human NOX4 (hNOX4) (Homo sapiens, UniProt Q9NPH5); test: cell-based
T2 sequence (Q9NPH5 1-578): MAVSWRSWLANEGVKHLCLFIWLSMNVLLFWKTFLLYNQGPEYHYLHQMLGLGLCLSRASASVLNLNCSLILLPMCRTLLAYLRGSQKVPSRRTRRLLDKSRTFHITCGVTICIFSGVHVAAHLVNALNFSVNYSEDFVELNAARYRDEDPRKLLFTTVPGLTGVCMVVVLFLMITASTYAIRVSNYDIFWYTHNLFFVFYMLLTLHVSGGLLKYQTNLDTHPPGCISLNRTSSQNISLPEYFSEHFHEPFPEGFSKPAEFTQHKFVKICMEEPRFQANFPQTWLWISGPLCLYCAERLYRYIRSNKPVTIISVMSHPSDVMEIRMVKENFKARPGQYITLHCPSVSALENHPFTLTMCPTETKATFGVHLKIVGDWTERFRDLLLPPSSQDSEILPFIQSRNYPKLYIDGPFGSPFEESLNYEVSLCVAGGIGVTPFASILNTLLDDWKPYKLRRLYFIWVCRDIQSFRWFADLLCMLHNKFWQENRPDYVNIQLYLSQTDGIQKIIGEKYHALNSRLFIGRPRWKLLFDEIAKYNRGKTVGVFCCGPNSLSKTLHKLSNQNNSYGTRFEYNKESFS
T2 sequence (P13498 2-195 partner limits assumed): T1 sequence (P13498 2-195 partner limits assumed)

| Compound | IC50 [1] [nM] | Qh [%] [2] [%] | IC50 [3] |
| --- | --- | --- | --- |
| Cc1cc(F)ccc1CSc1nc2ncsc2c(=O)n1-c1cnc(O)c(F)c1 [Example 36] | 87900 | 34 | 34 nM |
| O=c1c2scnc2nc(SCc2ccc(Cl)cc2)n1-c1ccc(O)nc1 [Example 25] | > 100000 | 41 | 100 nM and 101 nM |
| O=c1c2scnc2nc(SCc2ccc(Cl)cc2F)n1-c1cnc(O)nc1 [Example 53, 5-((4-Chloro-2-fluorobenzyl)thio)-6-(2-hydroxypyrimidin-5-yl)thiazolo[4,5-d]pyrimidin-7(6H)-one] | > 100000 | 13 | 116 nM |
| O=c1c2scnc2nc(SCc2ccc(Br)cc2F)n1-c1cnc(O)c(F)c1 [Example 34] | 63600 | 8 | 29 nM |
| O=c1c2scnc2nc(SCc2ccc(C(F)(F)F)cc2)n1-c1cnc(O)nc1 [Example 60] | > 100000 | 8 | 237 nM |
| Cc1cc(F)cc(C)c1CSc1nc2ncsc2c(=O)n1-c1ccc(O)nc1 [Example 24] | > 100000 | 45 | 98 nM |
| Cc1cc(Cl)ccc1CSc1nc2ncsc2c(=O)n1-c1ccc(O)nn1 [Example 62] | > 100000 | 58 | 127 nM |
| O=c1c2scnc2nc(SCc2ccc(C(F)(F)F)cc2Cl)n1-c1cnc(O)c(F)c1 [Example 46] | 56400 | 21 | 130 nM |
| O=c1c2scnc2nc(SCc2c(F)cc(F)cc2F)n1-c1ccc(O)c(F)c1F [Example 12] | 7600 | 77 | 51 nM |
| Cc1cc(F)cc(C)c1CSc1nc2ncsc2c(=O)n1-c1ccc(O)nn1 [Example 63] | > 100000 | – | 126 nM |
| Cc1c(F)cccc1CSc1nc2ncsc2c(=O)n1-c1cnc(O)c(F)c1 [Example 40] | 39200 | – | 59 nM |
| Cc1cc(F)ccc1CSc1nc2ncsc2c(=O)n1-c1ccc(O)nn1 [Example 68] | > 100000 | – | 143 nM |
| O=c1c2scnc2nc(SCc2ccc(C(F)(F)F)cc2F)n1-c1cc(F)c(O)c(F)c1 [Example 6] | > 100000 | – | 87 nM |
| Cc1cc(Cl)ccc1CSc1nc2ncsc2c(=O)n1-c1cc(F)c(O)c(F)c1 [Example 3] | > 100000 | – | 73 nM |

Results, then the compound that gave them:

| IC50 [1] [nM] | Qh [%] [2] [%] | IC50 [3] | Compound |
| --- | --- | --- | --- |
| > 100000 | 22 | 201 nM | O=c1c2scnc2nc(SCc2c(F)cc(F)cc2F)n1-c1cnc(O)c(Cl)c1 [Example 48, 6-(5-Chloro-6-hydroxypyridin-3-yl)-5-((2,4,6-trifluorobenzyl)thio)thiazolo[4,5-d]pyri-midin-7(6H)-one] |
| > 100000 | 25 | 45 nM | O=c1c2scnc2nc(SCc2c(F)cc(F)cc2F)n1-c1cnc(O)cc1F [Example 49, 6-(4-Fluoro-6-hydroxypyridin-3-yl)-5-((2,4,6-trifluorobenzyl)thio)thiazolo[4,5-d]pyrimidin-7(6H)-one] |
| 4000 | 72 | 27 nM | O=c1c2scnc2nc(SCc2c(F)cc(F)cc2F)n1-c1cc(F)c(O)cc1F [Example 10, 6-(2,5-Difluoro-4-hydroxyphenyl)-5-((2,4,6-trifluorobenzyl)thio)thiazolo[4,5-d]pyrimidin-7(6H)-one] |
| 8100 | 51 | 127 nM | O=c1c2scnc2nc(SCc2c(F)cc(F)cc2F)n1-c1cc(F)c(O)cn1 [Example 20] |
| > 100000 | 27 | 174 nM | O=c1c2scnc2nc(SCc2c(F)cc(F)cc2F)n1-c1ncc(O)cn1 [Example 21, 6-(5-Hydroxypyrimidin-2-yl)-5-((2,4,6-trifluorobenzyl)thio)thiazolo[4,5-d]pyrimidin-7(6H)-one] |
| 16000 | – | 61 nM | O=c1c2scnc2nc(SCc2c(F)cc(F)cc2F)n1-c1c(F)cc(O)cc1F [Example 13] |
| > 100000 | 52 | – | O=c1c2scnc2nc(SCc2c(F)cc(F)cc2F)n1-c1ccc(O)cn1 [Example 19] |
